Reference: ChEMBL document CHEMBL1201862, “PubChem BioAssay data set” (2004)
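Each compound was tested at five concentrations against cells in 96-well plates for 48 hours. GI50 is the concentration that inhibits growth by half.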 Activity calls are given as the source filed them. Cut-off read from the data, not from the text of the source: active = GI50 up to about 1.1 µM and inactive = higher.

Columns and labels:
Assay in all cases: inhibition of tumour cell growth, NCI panel, 48 h
786-0 = system: 786-0
A498 = system: A498
ACHN = system: ACHN
HCT-15 = system: HCT-15
IGROV-1 = system: IGROV-1
MOLT-4 = system: MOLT-4
Malme-3M = system: Malme-3M
NCI-H226 = system: NCI-H226
NCI-H23 = system: NCI-H23
NCI-H522 = system: NCI-H522
RXF 393 = system: RXF 393
SF-539 = system: SF-539
SK-MEL-28 = system: SK-MEL-28
SN12C = system: SN12C
SNB-19 = system: SNB-19
UACC-62 = system: UACC-62
UO-31 = system: UO-31
MCF7 = system: MCF7
MDA-MB-435 = system: MDA-MB-435

Row | SMILES | GI50 (786-0) | GI50 (A498) | GI50 (ACHN) | GI50 (HCT-15) [µM] | GI50 (IGROV-1) | GI50 (MOLT-4) | GI50 (Malme-3M) | GI50 (NCI-H226) | GI50 (NCI-H23) | GI50 (NCI-H522) | GI50 (RXF 393) | GI50 (SF-539) | GI50 (SK-MEL-28) | GI50 (SN12C) | GI50 (SNB-19) | GI50 (UACC-62) | GI50 (UO-31) | GI50 (MCF7) | GI50 (MDA-MB-435)
1 | CC(C)(C)c1cc([Si](C)(C)C)c(C#N)c([Si](C)(C)C)c1 | > 100 µM (inactive) | > 100 µM (inactive) | 87.3 µM (inactive) | > 100 | > 100 µM (inactive) | 37.2 µM (inactive) | > 100 µM (inactive) | 87.9 µM (inactive) | 76.9 µM (inactive) | 46.6 µM (inactive) | 36.6 µM (inactive) | > 100 µM (inactive) | > 100 µM (inactive) | > 100 µM (inactive) | 62.1 µM (inactive) | 60.5 µM (inactive) | > 100 µM (inactive) |  | 
2 | CC1=Nc2ccccc2SC(c2c(Cl)cccc2Cl)C1 (stereo not drawn) | 0.454 µM (active) | 2.12 µM (inactive) | 1.71 µM (inactive) | 1.19 | 1.77 µM (inactive) | 0.49 µM (active) | 1.61 µM (inactive) | 1.51 µM (inactive) | 1.32 µM (inactive) | 1.22 µM (inactive) | 1.34 µM (inactive) | 0.993 µM (active) | 1.36 µM (inactive) | 1.33 µM (inactive) | 1.38 µM (inactive) | 1.25 µM (inactive) | 1.71 µM (inactive) |  | 
3 | CC(C)N(C(=O)C12CC3CC(CC(C3)C1)C2)C(C)C | > 50 µM (inactive) | > 50 µM (inactive) | > 50 µM (inactive) | > 50 | > 50 µM (inactive) | > 50 µM (inactive) | > 50 µM (inactive) | > 50 µM (inactive) | > 50 µM (inactive) | > 50 µM (inactive) | > 50 µM (inactive) | > 50 µM (inactive) | > 50 µM (inactive) | > 50 µM (inactive) | > 50 µM (inactive) | > 50 µM (inactive) | > 50 µM (inactive) |  | 
4 | Cc1ccc(/C(=C/C=C(C#N)C#N)Sc2cc(Cl)ccc2Cl)cc1 | 1.92 µM (inactive) |  | 2.7 µM (inactive) | 3.06 | 8.41 µM (inactive) |  | 16.9 µM (inactive) | 3.02 µM (inactive) | 3.85 µM (inactive) | 3.55 µM (inactive) | 7.29 µM (inactive) | 3.18 µM (inactive) | 8.57 µM (inactive) | 3.22 µM (inactive) | 5.97 µM (inactive) | 3.85 µM (inactive) | 8.81 µM (inactive) | 17.5 µM (inactive) | 2.43 µM (inactive)
